These results are taken from patent US20250268903A1, “RXFP1 AGONISTS” (BRISTOL-MYERS SQUIBB COMPANY, priority 2021, published 2025).

pEC50: −log10 of the molar value.

For the assay, the target named is T1, human RXFP1 (Homo sapiens, UniProt Q9HBX9).
T1 construct: expressed in transfected cells
T1 sequence (Q9HBX9 1-757): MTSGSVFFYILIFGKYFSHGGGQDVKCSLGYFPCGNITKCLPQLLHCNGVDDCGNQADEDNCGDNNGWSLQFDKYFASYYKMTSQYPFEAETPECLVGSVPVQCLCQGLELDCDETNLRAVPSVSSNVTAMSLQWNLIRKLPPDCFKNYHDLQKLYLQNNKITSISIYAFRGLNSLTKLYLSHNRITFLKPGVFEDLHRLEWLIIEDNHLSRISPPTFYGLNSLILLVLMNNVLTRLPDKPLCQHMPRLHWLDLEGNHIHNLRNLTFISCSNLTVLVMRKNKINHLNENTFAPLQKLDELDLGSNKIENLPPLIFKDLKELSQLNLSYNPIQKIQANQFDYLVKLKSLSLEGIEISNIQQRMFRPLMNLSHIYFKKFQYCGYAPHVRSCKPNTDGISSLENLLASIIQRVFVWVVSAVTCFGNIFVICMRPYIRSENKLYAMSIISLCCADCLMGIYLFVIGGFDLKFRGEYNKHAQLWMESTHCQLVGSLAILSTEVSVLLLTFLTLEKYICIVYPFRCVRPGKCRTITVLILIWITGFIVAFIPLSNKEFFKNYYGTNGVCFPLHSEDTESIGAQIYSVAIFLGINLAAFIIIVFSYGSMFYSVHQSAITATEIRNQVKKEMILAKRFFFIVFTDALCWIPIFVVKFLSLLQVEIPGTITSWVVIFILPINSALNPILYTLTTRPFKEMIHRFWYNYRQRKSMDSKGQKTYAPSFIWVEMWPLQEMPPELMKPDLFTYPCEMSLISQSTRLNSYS
Kind of assay: hRXFP1 HEK293 cAMP assay (HTRF). In kind it is cell-based. The following applies: HEK293 cells stably expressing human RXFP1, 30 min at room temperature. The essentials: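 In a stable human RXFP1 HEK293 line, compounds acted for 30 min at RT in buffer with 0.5 mM IBMX. HTRF then quantified cellular cAMP.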
For orientation: cAMP levels reflect the balance of adenylyl cyclase and phosphodiesterase activity.
One may read the pEC50 as −log10 of the EC50, conventionally taken in molar units. A higher pEC50 goes with a low EC50. Regarding `COc1ccc([C@H]2C[C@@H](O)C2)cc1C(=O)NC1C2CCC(/C2=C/C(F)(F)F)[C@@H]1C(=O)Nc1ccc(F)c(C(F)(F)F)c1` (stereo partly drawn) [Example 146, (2S,7Z)-N-[4-fluoro-3-(trifluoromethyl)phe-nyl]-3-{2-methoxy-5-[(1s,3s)-3-hydroxycyclobutyl]benz-amido}-7-(2,2,2-trifluoroethylidene)bi-cyclo[2.2.1]heptane-2-carboxamide], the pEC50 was 6.63. Regarding `COc1ccc([C@H]2C[C@H](O)C2)cc1C(=O)N[C@H]1[C@@H](C(=O)Nc2ccc(F)c(C(F)(F)F)c2)[C@H]2CC[C@@H]1/C2=C\C1CC1` [Example 277, (1R,2S,3R,4R,7Z)-7-(cyclopropylmethyl-idene)-N-[4-fluoro-3-(trifluoromethyl)phenyl]-3-{2-methoxy-5-[(1r,3r)-3-hydroxycyclobutyl]benzamido} bicyclo [2.2.1]heptane-2-carboxamide], the pEC50 is 8.14. With `COC(=O)C1CC2(C1)CC(c1ccc(OC)c(C(=O)N[C@@H]3C4CCC(/C4=C/C(F)(F)F)[C@@H]3C(=O)Nc3ccc(F)c(C(F)(F)F)c3)c1)C2` (single isomer, unassigned) [Example 149], the negative logarithm of the EC50 (pEC50) was 6.07.

`COC(=O)C1CC(c2ccc(OC)c(C(=O)N[C@H]3[C@@H](C(=O)Nc4ccc(F)c(C(F)(F)F)c4)[C@H]4CC[C@@H]3/C4=C\C3CC3)c2)C1` (single isomer, unassigned) [Example 332] had a pEC50 of 6.95. For the compound `COc1ccc(CCCO)cc1C(=O)N[C@@H]1C2CCC(/C2=C/C(F)(F)F)[C@@H]1C(=O)Nc1ccc(F)c(C(F)(F)F)c1` (stereo partly drawn) [Example 84, (2S,3R,7Z)-N-[4-fluoro-3-(trifluoromethyl)phe-nyl]-3-[5-(3-hydroxypropyl)-2-methoxybenzamido]-7-(2,2,2-trifluoroethylidene)bi-cyclo[2.2.1]heptane-2-carboxamide], the pEC50 was 7.17. The compound `COc1ccc(C[C@H]2C[C@H](O)C2)cc1C(=O)N[C@H]1[C@@H](C(=O)Nc2ccc(F)c(C(F)(F)F)c2)[C@H]2CC[C@@H]1/C2=C\C(F)(F)F` [Example 279, (1R,2S,3R,4R,7Z)-N-[4-fluoro-3-(trifluoromethyl)phenyl]-3-(2-methoxy-5-{[(1r,3s)-3-hydroxycyclobutyl]methyl}benzamido)-7-(2,2,2-trifluoroethylidene) bicyclo[2.2.1]heptane-2-carboxamide] showed a pEC50 of 7.74. For `COc1ccc(S(=O)(=O)N2CC3CCC(C2)O3)cc1C(=O)N[C@H]1[C@@H](C(=O)Nc2ccc(F)c(C(F)(F)F)c2)[C@H]2CC[C@@H]1/C2=C\C1CC1` [Example 221, (1R,2S,3R,4R,7Z)-7-(cyclopropylmethyl-idene)-N-[4-fluoro-3-(trifluoromethyl)phenyl]-3-(2-methoxy-5-{8-oxa-3-azabicyclo[3.2.1]octane-3-sulfonyl}benzamido) bicyclo[2.2.1]heptane-2-carboxamide], the negative-log EC50 (pEC50) is 7.35. Regarding `CCOC(=O)/C(C)=C/c1ccc(OC)c(C(=O)N[C@H]2[C@@H](C(=O)Nc3ccc(F)c(C(F)(F)F)c3)[C@H]3CC[C@@H]2/C3=C\C(F)(F)F)c1` [Example 305, ethyl (2E)-3-(3-{[(1R,2R,3S,4R,7Z)-3-{[4-fluoro-3-(trifluoromethyl)phenyl]carbamoyl}-7-(2,2,2-trifluoroethylidene)bicyclo[2.2.1]heptan-2-yl]carbamoyl}-4-methoxyphenyl)-2-methylprop-2-enoate], the pEC50 is 6.13.

`COc1ccc(C(=O)N2CCCC(CO)C2)cc1C(=O)N[C@H]1[C@@H](C(=O)Nc2ccc(F)c(C(F)(F)F)c2)[C@H]2CC[C@@H]1/C2=C\C1CC1` (stereo partly drawn) [Example 234, (1R,2S,3R,4R,7Z)-7-(cyclopropyl-methylidene)-N-[4-fluoro-3-(trifluoromethyl)phenyl]-3-{5-[3-(hydroxymethyl)piperidine-1-carbonyl]-2-methoxybenzamido} bicyclo[2.2.1]heptane-2-carboxamide] showed a pEC50 of 7.19. `COc1ccc(C2CC(C(C)(C)O)C2)cc1C(=O)N[C@H]1[C@@H](C(=O)Nc2ccc(F)c(C(F)(F)F)c2)[C@H]2CC[C@@H]1/C2=C\C1CCCC1` (stereo partly drawn) [Example 363, (1R,2S,3R,4R,Z)-7-(cyclopentyl-methylene)-N-(4-fluoro-3-(trifluoromethyl)phenyl)-3-(5-(3-(2-hydroxypropan-2-yl)cyclobutyl)-2-methoxybenzamido) bicyclo[2.2.1] heptane-2-carboxamide] had a pEC50 of 8.41. As for `COCc1ncn(Cc2ccc(OC)c(C(=O)N[C@H]3[C@@H](C(=O)Nc4ccc(F)c(C(F)(F)F)c4)[C@H]4CC[C@@H]3/C4=C\C3CC3)c2)n1` [Example 296, (1R,2S,3R,4R,7Z)-7-(cyclopropyl-methylidene)-N-[4-fluoro-3-(trifluoromethyl)phenyl]-3-(2-methoxy-5-{[3-(methoxymethyl)-1H-1,2,4-triazol-1-yl]methyl}benzamido) bicyclo[2.2.1] heptane-2-carboxamide], the pEC50 is 6.97.

For the compound `COc1ccc(CC2CCOCC2)cc1C(=O)NC1C2CCC(/C2=C/C(F)(F)F)[C@@H]1C(=O)Nc1ccc(F)c(C(F)(F)F)c1` (stereo partly shown) [Example 178, (7Z)-N-[4-fluoro-3-(trifluoromethyl)phe-nyl]-3-{2-methoxy-5-[(oxan-4-yl)methyl]benzamido}-7-(2,2,2-trifluoroethylidene)bi-cyclo[2.2.1]heptane-2-carboxamide], the pEC50 is 6.45. The figure for `COc1ccc(C2CCCC(C(=O)O)C2)cc1C(=O)NC1C2CCC(/C2=C/C(F)(F)F)[C@@H]1C(=O)Nc1ccc(F)c(C(F)(F)F)c1` (stereo partly drawn) [Example 144, 3-(3-{[(2R,3S,7Z)-3-{[4-fluoro-3-(trifluoromethyl)phe-nyl]carbamoyl}-7-(2,2,2-trifluoroethylidene)bi-cyclo[2.2.1]heptan-2-yl]carbamoyl}-4-methoxyphenyl)cyclo-hexane-1-carboxylic acid] is 6.87; for `COc1ccc(/C=C/C(=O)NCC(F)(F)F)cc1C(=O)NC1C2CCC(/C2=C/C(F)(F)F)[C@@H]1C(=O)Nc1ccc(F)c(C(F)(F)F)c1` (stereo partly drawn) [Example 136, (2S,3R,7Z)-N-[4-fluoro-3-(trifluoromethyl)phe-nyl]-3-{2-methoxy-5-[(1E)-2-[(2,2,2-trifluoroethyl)carba-moyl]eth-1-en-1-yl]benzamido}-7-(2,2,2-trifluoroethylidene)bi-cyclo[2.2.1]heptane-2-carboxamide] it is 6.11; for `COc1ccc(C#CCCCCOC(=O)NC2CCC2)cc1C(=O)N[C@@H]1C2CCC(/C2=C/C(F)(F)F)[C@@H]1C(=O)Nc1ccc(F)c(C(F)(F)F)c1` (stereo partly drawn) [Example 81, 6-(3-{[(2R,3S,7Z)-3-{[4-fluoro-3-(trifluoromethyl)phe-nyl]carbamoyl}-7-(2,2,2-trifluoroethylidene)bi-cyclo[2.2.1]heptan-2-yl]carbamoyl}-4-methoxyphenyl)hex-5-yn-1-yl N-cyclobutylcarbamate] it is 6.43. As to `COc1ccc(C2CC3(CC(N)C3)C2)cc1C(=O)NC1C2CCC(/C2=C/C(F)(F)F)[C@@H]1C(=O)Nc1ccc(F)c(C(F)(F)F)c1` (stereo partly drawn) [Example 154, (2S,3R,7Z)-3-(5-{6-aminospiro[3.3]hept-an-2-yl}-2-methoxybenzamido)-N-[4-fluoro-3-(trifluoromethyl)phe-nyl]-7-(2,2,2-trifluoroethylidene)bi-cyclo[2.2.1]heptane-2-carboxamide], the pEC50 was 5.98. `COc1ccc(COC2CC=CC2)cc1C(=O)N[C@H]1[C@@H](C(=O)Nc2ccc(F)c(C(F)(F)F)c2)[C@H]2CC[C@@H]1/C2=C\C1CC1` [Example 285, (1R,2S,3R,4R,7Z)-3-{5-[(cyclopent-3-en-1-yloxy)methyl]-2-methoxybenzamido}-(cyclopropylmethyl-idene)-N-[4-fluoro-3-(trifluoromethyl)phenyl]bicyclo [2.2.1]heptane-2-carboxamide] had a pEC50 of 6.65. The figure for `O=C(N[C@@H]1C2CCC(/C2=C/C(F)(F)F)[C@@H]1C(=O)Nc1ccc(F)c(C(F)(F)F)c1)c1cc(CCCO)ccc1OCCO` (stereo partly drawn) [Example 107, (2S,3R,7Z)-N-[4-fluoro-3-(trifluoromethyl)phe-nyl]-3-[2-(2-hydroxyethoxy)-5-(3-hydroxypropyl)benz-amido]-7-(2,2,2-trifluoroethylidene)bi-cyclo[2.2.1]heptane-2-carboxamide] is 6.09; for `COc1ccc(CCCN)cc1C(=O)N[C@H]1[C@@H](C(=O)Nc2ccc(F)c(C(F)(F)F)c2)[C@H]2CC[C@@H]1/C2=C\C(F)(F)F` [Example 110, (1R,2S,3R,4R,Z)-3-(5-(3-aminopropyl)-2-methoxybenzamido)-N-(4-fluoro-3-(trifluoromethyl)phenyl)-7-(2,2,2-trifluoroethylidene) bicyclo[2.2.1]heptane-2-carboxamide] it is 5.60.
